Data: US20100190722A1, “SUBSTANCE P AND THYROTROPIN RELEASING HORMONE FOR THERAPEUTIC APPLICATIONS” (priority 2007, published 2010)
No end group written: not given here.

Assays:
HIV-1IIIB = assay: HIV-1 antiviral assay in CEM-SS cells (MTS readout); assay type: cell-based
HCMV strain AD169 = assay: HCMV plaque formation assay in MRC-5 cells
TNF-a spleen cells = assay: Th1/Th2 cytokine profiling assay, TNF-a; assay type: cell-based, Balb/c mice; conditions: 10 micrograms per ml; Ovalbumin restimulation; 72 hours
Excerpt: (§1) The Balb/c mice (originated in 1923, it is a popular strain and is used in many different research disciplines. Also classified as an inbred from the production of 20 or more successive brother-sister matings, the Balb/c mouse is albino and small in size) were immunized on Days 1, 15, and 29 with Ovalbumin (Ovalbumin is the main protein found in egg white, commonly used to stimulate an immunological reaction in test animals) in PBS (5 micrograms/injection). On day 50, spleens of the mice were harvested (3 weeks after last boost with Ovalbumin). […] Thereafter, additional Ovalbumin was added to the cells at 10 micrograms/ml for in vitro restimulation of the cells. 72 hours later, cell supernatants were harvested and assayed using the Becton Dickinson Mouse Th1/Th2 Cytokine CBA Kit.

[1] = system: hepatitis B virus (HBV) ayw strain; assay: HBV experimental assay system (secreted HBV DNA, TaqMan PCR); assay type: cell-based; conditions: 10 micrograms per ml; HepG2-2.2.15 cells; six days
IFNγ spleen cells = assay: Th1/Th2 cytokine profiling assay, IFNγ; assay type: cell-based, Balb/c mice; conditions: 10 micrograms per ml; Ovalbumin restimulation; 72 hours
Excerpt: as §1

IL-5 spleen cells = assay: Th1/Th2 cytokine profiling assay, IL-5; assay type: cell-based, Balb/c mice; conditions: 10 micrograms per ml; Ovalbumin restimulation; 72 hours
Excerpt: as §1

IL-4 spleen cells = assay: Th1/Th2 cytokine profiling assay, IL-4; assay type: cell-based, Balb/c mice; conditions: 10 micrograms per ml; Ovalbumin restimulation; 72 hours
Excerpt: as §1

A549 cells = assay: Apoptosis prevention assay (C2 ceramide, Annexin-5); assay type: cell-based, human; conditions: 10 micrograms per ml, 30 min pretreatment
Description: Human A549 cells (carcinomic human alveolar basal epithelial cells) were utilized in the experiments employing the Annexin-5 apoptosis assay. […] A549 cells were pretreated for 30 min with test peptides—10 micrograms per ml—followed by the exposure to C2 ceramide.

RAW 264.7 cells = assay: Phagocytosis assay (Fluorescein-labeled Escherichia coli, flow cytometry); conditions: 10 micrograms per ml
IL-2 spleen cells = assay: Th1/Th2 cytokine profiling assay, IL-2; assay type: cell-based, Balb/c mice; conditions: 10 micrograms per ml; Ovalbumin restimulation; 72 hours
Excerpt: as §1

Compound	antiviral activity of positive control compounds (HIV-1) (HIV-1IIIB)	antiviral activity of positive control compound (HCMV) (HCMV strain AD169)	TNF-a spleen cells; TH1 response (% of control) (TNF-a spleen cells)	inhibition of HBV replication as compared to the virus control infection [1]	IFNγ spleen cells; TH1 response (% of control) (IFNγ spleen cells)	IL-5 spleen cells; TH2 response (% of control) (IL-5 spleen cells)	IL-4 spleen cells; TH2 response (% of control) (IL-4 spleen cells)	prevention (reduction) of ceramide-induced apoptosis on human lung cells (A549 cells)	increase of the phagocytic activity of murine macrophages (RAW 264.7 cells)	IL-2 spleen cells (% of control) (IL-2 spleen cells)
Cc1cn([C@H]2C[C@H](N=[N+]=[N-])[C@@H](CO)O2)c(=O)[nH]c1=O [AZT]	expected levels of antiviral activity	–	–	–	–	–	–	–	–	–
Nc1nc(O)c2ncn(COC(CO)CO)c2n1 [Ganciclovir]	–	expected levels of antiviral activity	–	–	–	–	–	–	–	–
CC(C)(C)NC(=O)[C@@H]1CN(Cc2cccnc2)CCN1C[C@@H](O)C[C@@H](Cc1ccccc1)C(=O)N[C@H]1c2ccccc2C[C@H]1O [indinavir]	expected levels of antiviral activity	–	–	–	–	–	–	–	–	–
Arg-Pro-Lys-Pro-Gln-Gln-Phe-Phe-Gly-Leu-Met-NH2 (RPKPQQFFGLM-NH2) [Peptide 1]	–	–	101.0 % of control	30.2%	136.4 % of control	64.0 % of control	106.2 % of control	10.9%	28.6%	113.6 % of control
Pyr-His-Pro-NH2 [Peptide 2]	–	–	110.7 % of control	no effect	102.0 % of control	67.5 % of control	106.2 % of control	17.2%	31.4%	0.0 % of control
